In ChEMBL document CHEMBL1146845, “Structural determinants for N1/N7 cyclization of nicotinamide hypoxanthine 5'-dinucleotide (NHD+) derivatives by ADP-ribosyl cyclase from aplysia californica: Ca2+-mobilizing activity of 8-substituted cyclic inosine 5'-diphosphoribose analogues in T-lymphocytes” (J Med Chem, 2006):
Active and inactive are the calls of the source. The rule behind the calls is not given here.

System: Jurkat
Test: Induction of calcium ion mobilization in intact Jurkat cells
Assay type: functional, cell-based
Settings: Homo sapiens

O=c1c2nc(I)n3c2ncn1[C@@H]1O[C@H](COP(=O)(O)OP(=O)(O)OC[C@H]2O[C@@H]3[C@H](O)[C@@H]2O)[C@@H](O)[C@H]1O
Activity: Active

O=c1c2nc(-c3ccccc3)n3c2ncn1[C@@H]1O[C@H](COP(=O)(O)OP(=O)(O)OC[C@H]2O[C@@H]3[C@H](O)[C@@H]2O)[C@@H](O)[C@H]1O
Activity: Active
